Test: Anticancer human tumor 997537-175-T-J1-PDC patient-derived colon adenocarcinoma cell line growth inhibition [POLQ]
Settings: 997537-175-T-J1-PDC complex spheroid viability, combination with POLQ inhibitors; for IC50: curve of first compound; for viability, T/C: stronger effect = lower value
In short: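 Complex spheroid viability model combining PDC tumour cells with endothelial (HUVEC) and MSC stromal cells. Novobiocin, ART-558 or RP6685 were tested singly and in combination with standard and investigational anticancer drugs. Each was titrated in half-log steps from near clinical Cmax, or from 10 microM where Cmax was unknown.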

[1] = second compound 0.0316 µM, first compound 0.0316 µM
[2] = second compound 0.0316 µM, first compound 0.1 µM
[3] = second compound 0.0316 µM, first compound 0.316 µM
[4] = second compound 0.0316 µM, first compound 1 µM
[5] = second compound 0.1 µM, first compound 0.0316 µM
[6] = second compound 0.1 µM, first compound 0.1 µM
[7] = second compound 0.1 µM, first compound 0.316 µM
[8] = second compound 0.1 µM, first compound 1 µM
[9] = second compound 0.316 µM, first compound 0.0316 µM
[10] = second compound 0.316 µM, first compound 0.1 µM
[11] = second compound 0.316 µM, first compound 0.316 µM
[12] = second compound 0.316 µM, first compound 1 µM
[13] = second compound 1 µM, first compound 0.0316 µM
[14] = second compound 1 µM, first compound 0.1 µM
[15] = second compound 1 µM, first compound 0.316 µM
[16] = second compound 1 µM, first compound 1 µM
[17] = second compound 3.16 µM, first compound 0.0316 µM
[18] = second compound 3.16 µM, first compound 0.1 µM
[19] = second compound 3.16 µM, first compound 0.316 µM
[20] = second compound 3.16 µM, first compound 1 µM
[21] = second compound 10 µM, first compound 0.0316 µM
[22] = second compound 10 µM, first compound 0.1 µM
[23] = second compound 10 µM, first compound 0.316 µM
[24] = second compound 10 µM, first compound 1 µM
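Also: luminescence signal used as a surrogate for viable cells; spheroids exposed to drugs for seven days before readout.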

Q: What does the source list for `CCc1c2c(nc3ccc(O)cc13)-c1cc3c(c(=O)n1C2)COC(=O)[C@]3(O)CC` + COC1C(OC(N)=O)C(O)C(Oc2ccc3c(O)c(NC(=O)c4ccc(O)c(CC=C(C)C)c4)c(=O)oc3c2C)OC1(C)C?
A: IC50 (second compound 0.0316 µM): 20.3 nM; IC50 (second compound 0.1 µM): 19.4 nM; IC50 (second compound 0.316 µM): 19.7 nM; IC50 (second compound 1 µM): 15.3 nM; IC50 (second compound 3.16 µM): 18.6 nM; IC50 (second compound 10 µM): 13.1 nM; viability, T/C (second compound 0.0316 µM, first compound 0.00316 µM): 73.2%; viability, T/C (second compound 0.0316 µM, first compound 0.01 µM): 79.5%; viability, T/C [1]: 33.5%; viability, T/C [2]: 22.7%; viability, T/C [3]: 4.91%; viability, T/C [4]: 4.67%; viability, T/C (second compound 0.1 µM, first compound 0.00316 µM): 72.3%; viability, T/C (second compound 0.1 µM, first compound 0.01 µM): 74.8%; viability, T/C [5]: 32.9%; viability, T/C [6]: 14.3%; viability, T/C [7]: 7.35%; viability, T/C [8]: 6.22%; viability, T/C (second compound 0.316 µM, first compound 0.00316 µM): 78%; viability, T/C (second compound 0.316 µM, first compound 0.01 µM): 73%; viability, T/C [9]: 33.8%; viability, T/C [10]: 14.3%; viability, T/C [11]: 6.7%; viability, T/C [12]: 6.93%; viability, T/C (second compound 1 µM, first compound 0.00316 µM): 88.8%; viability, T/C (second compound 1 µM, first compound 0.01 µM): 60.1%; viability, T/C [13]: 32.1%; viability, T/C [14]: 19.2%; viability, T/C [15]: 6.28%; viability, T/C [16]: 5.11%; viability, T/C (second compound 3.16 µM, first compound 0.00316 µM): 88.9%; viability, T/C (second compound 3.16 µM, first compound 0.01 µM): 74%; viability, T/C [17]: 29.4%; viability, T/C [18]: 11.4%; viability, T/C [19]: 7.04%; viability, T/C [20]: 7.5%; viability, T/C (second compound 10 µM, first compound 0.00316 µM): 63.9%; viability, T/C (second compound 10 µM, first compound 0.01 µM): 57.9%; viability, T/C [21]: 26.3%; viability, T/C [22]: 15%; viability, T/C [23]: 6.46%; viability, T/C [24]: 9.61%

Q: Which results are given for `Nc1ccn(C2OC(CO)C(O)C2(F)F)c(=O)n1` (centres undefined) + COC1C(OC(N)=O)C(O)C(Oc2ccc3c(O)c(NC(=O)c4ccc(O)c(CC=C(C)C)c4)c(=O)oc3c2C)OC1(C)C?
A: IC50 (second compound 0.0316 µM): > 10000 nM; IC50 (second compound 0.1 µM): > 10000 nM; IC50 (second compound 0.316 µM): > 10000 nM; IC50 (second compound 1 µM): > 10000 nM; IC50 (second compound 3.16 µM): > 10000 nM; IC50 (second compound 10 µM): > 10000 nM; viability, T/C [1]: 95.8%; viability, T/C [2]: 108%; viability, T/C [3]: 79.4%; viability, T/C [4]: 85.2%; viability, T/C (second compound 0.0316 µM, first compound 3.16 µM): 65.8%; viability, T/C (second compound 0.0316 µM, first compound 10 µM): 88.2%; viability, T/C [5]: 108%; viability, T/C [6]: 106%; viability, T/C [7]: 72.2%; viability, T/C [8]: 95%; viability, T/C (second compound 0.1 µM, first compound 3.16 µM): 80.6%; viability, T/C (second compound 0.1 µM, first compound 10 µM): 74.9%; viability, T/C [9]: 103%; viability, T/C [10]: 106%; viability, T/C [11]: 88.7%; viability, T/C [12]: 78.4%; viability, T/C (second compound 0.316 µM, first compound 3.16 µM): 73.9%; viability, T/C (second compound 0.316 µM, first compound 10 µM): 66.8%; viability, T/C [13]: 106%; viability, T/C [14]: 89.9%; viability, T/C [15]: 100%; viability, T/C [16]: 76.5%; viability, T/C (second compound 1 µM, first compound 3.16 µM): 63.6%; viability, T/C (second compound 1 µM, first compound 10 µM): 70.6%; viability, T/C [17]: 97.9%; viability, T/C [18]: 97%; viability, T/C [19]: 92.5%; viability, T/C [20]: 94.6%; viability, T/C (second compound 3.16 µM, first compound 3.16 µM): 71.7%; viability, T/C (second compound 3.16 µM, first compound 10 µM): 62.7%; viability, T/C [21]: 84.6%; viability, T/C [22]: 90.8%; viability, T/C [23]: 86.5%; viability, T/C [24]: 63.7%; viability, T/C (second compound 10 µM, first compound 3.16 µM): 71.6%; viability, T/C (second compound 10 µM, first compound 10 µM): 72.3%
